US9926282B2, “Phthalazinones and isoquinolinones as rock inhibitors” (BRISTOL-MYERS SQUIBB COMPANY, priority 2013, dated 2018)
Where two headings read alike, the source gives them in different places.

What was measured:
ROCK2 = ROCK2 (Homo sapiens (Human), UniProt O75116); experiment: ROCK assay (LABCHIP peptide phosphorylation), ROCK2; format: biochemical; conditions: 5 μM ATP, 1.5 μM peptide substrate
ROCK1 = ROCK1 (Homo sapiens (Human), UniProt Q13464); experiment: ROCK assay (LABCHIP peptide phosphorylation), ROCK1; format: biochemical
Sequence of ROCK1 (Q13464 whole entry, species assumed): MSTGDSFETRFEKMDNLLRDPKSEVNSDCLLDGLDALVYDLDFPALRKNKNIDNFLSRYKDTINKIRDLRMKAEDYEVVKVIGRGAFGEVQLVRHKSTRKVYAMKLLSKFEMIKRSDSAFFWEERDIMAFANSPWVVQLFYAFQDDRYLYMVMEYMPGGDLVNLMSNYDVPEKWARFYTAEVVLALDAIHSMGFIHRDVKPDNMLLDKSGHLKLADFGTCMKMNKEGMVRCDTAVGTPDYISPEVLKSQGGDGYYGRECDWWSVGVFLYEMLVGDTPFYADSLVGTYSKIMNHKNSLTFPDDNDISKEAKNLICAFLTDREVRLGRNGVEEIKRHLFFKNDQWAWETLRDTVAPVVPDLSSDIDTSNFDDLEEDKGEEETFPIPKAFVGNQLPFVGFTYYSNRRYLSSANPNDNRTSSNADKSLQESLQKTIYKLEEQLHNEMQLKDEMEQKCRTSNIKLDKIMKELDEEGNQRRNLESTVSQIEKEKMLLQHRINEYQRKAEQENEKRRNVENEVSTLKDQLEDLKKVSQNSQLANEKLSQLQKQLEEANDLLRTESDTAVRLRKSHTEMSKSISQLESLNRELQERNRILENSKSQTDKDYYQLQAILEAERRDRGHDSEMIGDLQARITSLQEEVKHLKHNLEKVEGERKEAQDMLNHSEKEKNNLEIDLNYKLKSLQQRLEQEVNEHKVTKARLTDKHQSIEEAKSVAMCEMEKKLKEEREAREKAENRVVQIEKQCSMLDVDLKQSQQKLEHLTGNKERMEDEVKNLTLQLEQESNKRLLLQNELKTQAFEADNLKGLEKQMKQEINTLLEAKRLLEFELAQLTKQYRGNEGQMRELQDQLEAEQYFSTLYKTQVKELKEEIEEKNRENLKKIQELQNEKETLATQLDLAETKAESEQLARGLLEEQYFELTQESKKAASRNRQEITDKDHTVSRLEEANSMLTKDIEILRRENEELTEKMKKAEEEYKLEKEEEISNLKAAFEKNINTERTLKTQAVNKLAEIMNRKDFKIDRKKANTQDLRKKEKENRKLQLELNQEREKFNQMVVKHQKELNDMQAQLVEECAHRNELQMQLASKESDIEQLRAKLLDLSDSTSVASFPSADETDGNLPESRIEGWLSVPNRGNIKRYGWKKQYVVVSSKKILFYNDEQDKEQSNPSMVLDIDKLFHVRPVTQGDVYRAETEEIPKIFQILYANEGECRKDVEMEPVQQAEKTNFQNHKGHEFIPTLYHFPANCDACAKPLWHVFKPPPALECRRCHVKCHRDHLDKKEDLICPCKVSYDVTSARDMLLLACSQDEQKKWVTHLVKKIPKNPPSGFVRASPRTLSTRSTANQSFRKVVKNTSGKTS

[1] = 5 μM ATP, 1.5 μM peptide substrate, read-out: ROCK1 IC50

Sequence of ROCK2 (O75116 whole entry, species assumed): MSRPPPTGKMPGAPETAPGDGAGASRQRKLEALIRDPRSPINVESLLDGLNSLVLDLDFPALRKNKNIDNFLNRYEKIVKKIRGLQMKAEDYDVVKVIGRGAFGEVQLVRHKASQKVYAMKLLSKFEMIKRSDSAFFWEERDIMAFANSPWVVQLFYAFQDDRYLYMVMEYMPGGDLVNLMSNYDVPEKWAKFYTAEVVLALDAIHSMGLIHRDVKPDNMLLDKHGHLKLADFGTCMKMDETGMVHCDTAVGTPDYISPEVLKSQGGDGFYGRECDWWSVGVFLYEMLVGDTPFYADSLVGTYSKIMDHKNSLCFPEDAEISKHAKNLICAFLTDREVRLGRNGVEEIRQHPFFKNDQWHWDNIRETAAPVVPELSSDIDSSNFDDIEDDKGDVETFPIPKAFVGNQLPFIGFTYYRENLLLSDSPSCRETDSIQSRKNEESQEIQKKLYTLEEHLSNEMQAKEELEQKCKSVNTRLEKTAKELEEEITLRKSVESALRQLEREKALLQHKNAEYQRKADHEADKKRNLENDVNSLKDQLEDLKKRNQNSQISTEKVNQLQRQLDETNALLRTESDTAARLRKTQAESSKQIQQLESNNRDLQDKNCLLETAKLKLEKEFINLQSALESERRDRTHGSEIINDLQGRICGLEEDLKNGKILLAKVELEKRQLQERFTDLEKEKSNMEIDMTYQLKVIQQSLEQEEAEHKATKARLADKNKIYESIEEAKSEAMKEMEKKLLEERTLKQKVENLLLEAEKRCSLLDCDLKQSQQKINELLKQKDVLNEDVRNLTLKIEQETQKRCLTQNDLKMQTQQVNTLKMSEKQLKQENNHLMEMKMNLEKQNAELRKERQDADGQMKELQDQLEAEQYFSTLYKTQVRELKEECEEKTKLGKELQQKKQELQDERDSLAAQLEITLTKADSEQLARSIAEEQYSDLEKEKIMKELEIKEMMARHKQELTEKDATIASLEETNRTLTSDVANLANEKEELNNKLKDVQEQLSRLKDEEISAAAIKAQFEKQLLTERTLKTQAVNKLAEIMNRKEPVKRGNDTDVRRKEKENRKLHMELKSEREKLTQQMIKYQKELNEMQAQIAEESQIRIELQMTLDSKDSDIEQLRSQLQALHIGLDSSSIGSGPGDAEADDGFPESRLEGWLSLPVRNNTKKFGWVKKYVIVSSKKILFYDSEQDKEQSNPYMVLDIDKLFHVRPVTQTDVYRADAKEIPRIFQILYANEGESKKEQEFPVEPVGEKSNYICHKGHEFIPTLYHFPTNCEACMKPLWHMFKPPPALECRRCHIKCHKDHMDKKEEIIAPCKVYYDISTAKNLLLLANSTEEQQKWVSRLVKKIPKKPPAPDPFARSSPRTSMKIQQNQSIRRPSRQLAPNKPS

Work on `CN(C)c1ccc(C(=O)Nc2ccc(-c3n[nH]c(=O)c4ccccc34)cc2)cc1` [Example 58, 4-(dimethylamino)-N-[4-(4-oxo-3,4-dihydrophthalazin-1-yl)phenyl]benzamide] yielded an IC50 (ROCK2) of 0.1 to 100 nM and an IC50 (ROCK1; [1]) of 0.1 to 100 nM.

Molecule `O=C(Nc1ccc(-c2n[nH]c(=O)c3ccccc23)cc1)c1cnn2cc(OCCN3CCOCC3)ccc12` [Example 188, 6-[2-(morpholin-4-yl)ethoxy]-N-[4-(4-oxo-3,4-dihydrophthalazin-1-yl)phenyl]pyrazolo[1,5-a]pyridine-3-carboxamide] has an IC50 (ROCK2) of 0.1 to 100 nM and an IC50 (ROCK1; [1]) of 0.1 to 100 nM.

In the case of `CC(C)Oc1ccc2c(c1)CCN2C(=O)Cc1ccc(-c2n[nH]c(=O)c3ccccc23)cc1` [Example 273, 4-(4-{2-oxo-2-[5-(propan-2-yloxy)-2,3-dihydro-1H-indol-1-yl]ethyl}phenyl)-1,2-dihydrophthalazin-1-one], the IC50 (ROCK2) is reported as 0.1 to 100 nM and the IC50 (ROCK1; [1]) is reported as 101 to 1000 nM.

Molecule `CN1CCN(Cc2ccc3c(c2)CN(C(=O)Cc2ccc(-c4n[nH]c(=O)c5ccccc45)cc2)C3)CC1` [Example 25] has an IC50 (ROCK2) of 0.1 to 100 nM and an IC50 (ROCK1; [1]) of 101 to 1000 nM.

Work on `CC(C)(O)COc1ccn2ncc(C(=O)Nc3ccc(-c4n[nH]c(=O)c5ccccc45)cc3)c2c1` [Example 181, 5-(2-hydroxy-2-methylpropoxy)-N-[4-(4-oxo-3,4-dihydrophthalazin-1-yl)phenyl]pyrazolo[1,5-a]pyridine-3-carboxamide] yielded an IC50 (ROCK2) of 0.1 to 100 nM and an IC50 (ROCK1; [1]) of 101 to 1000 nM.

`COCCn1nc(C(=O)Nc2ccc(-c3n[nH]c(=O)c4ccccc34)cc2)c2ccccc21` [Example 151, 1-(2-methoxyethyl)-N-[4-(4-oxo-3,4-dihydrophthalazin-1-yl)phenyl]-1H-indazole-3-carboxamide] gave an IC50 (ROCK2) of 0.1 to 100 nM and an IC50 (ROCK1; [1]) of 0.1 to 100 nM.

Work on `O=C(Nc1ccc(-c2n[nH]c(=O)c3ccccc23)cc1)c1nn(CC2CNC2)c2ccccc12` [Example 338, 1-(Azetidin-3-ylmethyl)-N-(4-(4-oxo-3,4-dihydrophthalazin-1-yl)phenyl)-1H-indazole-3-carboxamide] yielded an IC50 (ROCK2) of 101 to 1000 nM and an IC50 (ROCK1; [1]) of 0.1 to 100 nM.

Work on `O=C(Nc1ccc(-c2n[nH]c(=O)c3ccccc23)c(Cl)c1)c1nn(CC2CCOCC2)c2ccccc12` [Example 318, N-[3-chloro-4-(4-oxo-3,4-dihydrophthalazin-1-yl)phenyl]-1-(oxan-4-ylmethyl)-1H-indazole-3-carboxamide] yielded an IC50 (ROCK2) of 0.1 to 100 nM and an IC50 (ROCK1; [1]) of 0.1 to 100 nM.

`CC(C)(O)COc1ccc2c(c1)N(C(=O)Cc1ccc(-c3n[nH]c(=O)c4ccccc34)cc1)CC2` [Example 265, 4-(4-(2-(6-(2-Hydroxy-2-methylpropoxy)indolin-1-yl)-2-oxoethyl)phenyl)phthalazin-1(2H)-one] showed an IC50 (ROCK2) of 0.1 to 100 nM and an IC50 (ROCK1; [1]) of 0.1 to 100 nM.

Work on `CN1CCN(Cc2ccc3c(c2)CN(C(=O)Oc2ccc(-c4n[nH]c(=O)c5ccccc45)cc2)C3)CC1` [Example 72, 4-(4-Oxo-3,4-dihydrophthalazin-1-yl)phenyl 5-((4-methylpiperazin-1-yl)methyl)isoindoline-2-carboxylate] yielded an IC50 (ROCK2) of 0.1 to 100 nM and an IC50 (ROCK1) of 101 to 1000 nM.

Work on `O=C(Nc1ccc(-c2n[nH]c(=O)c3ccccc23)cc1)c1nn(CC2CCCO2)c2ccccc12` (stereo not drawn) [Example 148, N-[4-(4-oxo-3,4-dihydrophthalazin-1-yl)phenyl]-1-(oxolan-2-ylmethyl)-1H-indazole-3-carboxamide] yielded an IC50 (ROCK2) of 0.1 to 100 nM and an IC50 (ROCK1; [1]) of 0.1 to 100 nM.

Molecule `O=C(Nc1ccc(-c2n[nH]c(=O)c3ccccc23)cc1)c1nn(CC2CCOC2)c2ccc(F)cc12` (stereo not drawn) [Example 173, 5-fluoro-N-[4-(4-oxo-3,4-dihydrophthalazin-1-yl)phenyl]-1-(oxolan-3-ylmethyl)-1H-indazole-3-carboxamide] has an IC50 (ROCK2) of 0.1 to 100 nM and an IC50 (ROCK1; [1]) of 0.1 to 100 nM.

For `Cc1cc(NC(=O)c2nn(CC3(C)COC3)c3ccccc23)ccc1-c1n[nH]c(=O)c2ccccc12` [Example 314, N-[3-methyl-4-(4-oxo-3,4-dihydrophthalazin-1-yl)phenyl]-1-[(3-methyloxetan-3-yl)methyl]-1H-indazole-3-carboxamide], the IC50 (ROCK2) was 0.1 to 100 nM and the IC50 (ROCK1; [1]) was 0.1 to 100 nM.

With `O=C(Nc1ccc(-c2n[nH]c(=O)c3ccccc23)cc1)c1cc2cc(Cl)cnc2[nH]1` [Example 119, 5-chloro-N-[4-(4-oxo-3,4-dihydrophthalazin-1-yl)phenyl]-1H-pyrrolo[2,3-b]pyridine-2-carboxamide] the IC50 (ROCK2) was 0.1 to 100 nM and the IC50 (ROCK1; [1]) was 101 to 1000 nM.

`O=C(Nc1ccc(-c2n[nH]c(=O)c3ccccc23)cc1)c1cccc(N2CCCC2)c1` [Example 62, N-[4-(4-oxo-3,4-dihydrophthalazin-1-yl)phenyl]-3-(pyrrolidin-1-yl)benzamide] was tested, and the IC50 (ROCK2) was 0.1 to 100 nM and the IC50 (ROCK1; [1]) was 0.1 to 100 nM.

`COc1cc(-c2n[nH]c(=O)c3ccccc23)ccc1NC(=O)c1nn(CC2CCOC2)c2ccccc12` (stereo not drawn) [Example 352, N-(2-Methoxy-4-(4-oxo-3,4-dihydrophthalazin-1-yl)phenyl)-1-((tetrahydrofuran-3-yl)methyl)-1H-indazole-3-carboxamide] showed an IC50 (ROCK2) of 101 to 1000 nM and an IC50 (ROCK1; [1]) of 1000 to 50000 nM.

`O=C(Nc1ccc(-c2n[nH]c(=O)c3ccccc23)cc1)c1ccc(-n2cncn2)cc1` [Example 92, N-[4-(4-oxo-3,4-dihydrophthalazin-1-yl)phenyl]-4-(1H-1,2,4-triazol-1-yl)benzamide] showed an IC50 (ROCK2) of 0.1 to 100 nM and an IC50 (ROCK1; [1]) of 101 to 1000 nM.

For `CC(C)(O)Cn1nc(C(=O)Nc2ccc(-c3n[nH]c(=O)c4ccccc34)c(Cl)c2)c2ccccc21` [Example 315, N-[3-chloro-4-(4-oxo-3,4-dihydrophthalazin-1-yl)phenyl]-1-(2-hydroxy-2-methylpropyl)-1H-indazole-3-carboxamide], the IC50 (ROCK2) was 0.1 to 100 nM and the IC50 (ROCK1; [1]) was 0.1 to 100 nM.

For `CC1Cc2ccccc2N1C(=O)Cc1ccc(-c2n[nH]c(=O)c3ccccc23)cc1` (stereo not drawn) [Example 40, 4-{4-[2-(2-methyl-2,3-dihydro-1H-indol-1-yl)-2-oxoethyl]phenyl}-1,2-dihydrophthalazin-1-one], the IC50 (ROCK2) was 0.1 to 100 nM and the IC50 (ROCK1; [1]) was 101 to 1000 nM.

For `O=C(Nc1ccc(-c2n[nH]c(=O)c3ccccc23)cc1)c1c[nH]c2ccncc12` [Example 166, N-[4-(4-oxo-3,4-dihydrophthalazin-1-yl)phenyl]-1H-pyrrolo[3,2-c]pyridine-3-carboxamide], the IC50 (ROCK2) was 0.1 to 100 nM and the IC50 (ROCK1; [1]) was 101 to 1000 nM.

For `O=C(Nc1ccc(-c2n[nH]c(=O)c3ccccc23)cc1)c1n[nH]c2c1C(=O)CCC2` [Example 109, 4-oxo-N-[4-(4-oxo-3,4-dihydrophthalazin-1-yl)phenyl]-4,5,6,7-tetrahydro-1H-indazole-3-carboxamide], the IC50 (ROCK2) was 0.1 to 100 nM and the IC50 (ROCK1; [1]) was 0.1 to 100 nM.

With `O=C(Nc1ccc(-c2n[nH]c(=O)c3ccccc23)c(CO)c1)c1nn(CC2CCCO2)c2ccccc12` (stereo not drawn) [Example 367, N-(3-(Hydroxymethyl)-4-(4-oxo-3,4-dihydrophthalazin-1-yl)phenyl)-1-((tetrahydrofuran-2-yl)methyl)-1H-indazole-3-carboxamide] the IC50 (ROCK2) was 0.1 to 100 nM and the IC50 (ROCK1; [1]) was 1000 to 50000 nM.

For `Cn1nc(C(=O)Nc2ccc(-c3n[nH]c(=O)c4ccccc34)c(CO)c2)c2ccccc21` [Example 363, N-(3-(Hydroxymethyl)-4-(4-oxo-3,4-dihydrophthalazin-1-yl)phenyl)-1-methyl-1H-indazole-3-carboxamide], the IC50 (ROCK2) was 0.1 to 100 nM and the IC50 (ROCK1; [1]) was 1000 to 50000 nM.

In the case of `O=C(Nc1ccc(-c2n[nH]c(=O)c3ccccc23)cc1)c1noc2ccccc12` [Example 118, N-[4-(4-oxo-3,4-dihydrophthalazin-1-yl)phenyl]-1,2-benzoxazole-3-carboxamide], the IC50 (ROCK2) is reported as 0.1 to 100 nM and the IC50 (ROCK1; [1]) is reported as 101 to 1000 nM.
